From patent US12714706B2, “Methods of treating small cell lung cancer with lurbinectedin formulations” (PHARMA MAR, S.A., priority 2019, dated 2026)
In brackets after ≈: the same amount, converted by molar mass. Read-outs that look alike come from different tables or passages of the source.

Legend:
[1] = system: patients; conditions: previous analysis, dose based on body surface area; cited from earlier work
[2] = physchem
[3] = physchem; conditions: pH 4, aqueous buffer
Description: Bulk solutions of phosphate, acetate, citrate, lactate and succinate buffers were prepared to determine maximum solubility of lurbinectedin.

[4] = system: SCLC; experiment: Phase 2 trial of lurbinectedin monotherapy in SCLC: antitumor activity (ORR, DOR, PFS, OS; RECIST v1.1); format: in vivo, human
Description: A clinical study of lurbinectedin monotherapy for patients collectively afflicted with SCLC who have refractory or resistant disease, as defined herein, was carried out. In this clinical single-arm, multi-center, open-label, phase 2 trail, a cohort of 105 patients, who had measurable disease, including patients whose SCLC was unresponsive to first-line platinum-containing chemotherapy (cisplatin, carboplatin or oxaliplatin) (refractory) and patients whose SCLC recurred within or equal to 90 days after cessation of first-line therapy (resistant), were treated with lurbinectedin at a dosage of 3.2 mg/m^2 given intravenously over a period of 1 hour every 21 days. Lurbinectedin was provided as a sterile isotonic aqueous solution for IV infusion as described below.
Starting dose was 3.2 mg/m^2. Dose was capped at body surface area of […] (e.g. dose not allowed to exceed 6.4 mg). Patients received lurbinectedin i.v. as a one-hour infusion on Day 1 every three weeks until disease progression or unacceptable toxicity. Three weeks was defined as one treatment cycle.
The primary objective of this study was to assess the antitumor activity of lurbinectedin in terms of overall response rate (ORR) as primary endpoint and supported by duration of response (DOR) as secondary endpoint. ORR was assessed using RECIST v1.1. on a set of measurable lesions identified at baseline as target lesions or as non-target lesions (if any), and followed until disease progression (PD) by an appropriate method.
Radiological tumor assessment (CT scan or MRI) was performed at baseline, and every 6 weeks from the onset of the study treatment until cycle 6 or evidence of PD, and every 9 weeks thereafter. If an objective response was observed, according to RECIST v1.1., it had to be confirmed by the same method at least four weeks after the date of the first documentation of response.
ORR was defined as the percentage of evaluable patients with a confirmed response, either complete (CR) or partial response (PR), from the start of treatment to the date of progression or the start of a subsequent therapy or end of patients follow-up according to RECIST v1.1. DOR was calculated […], recurrence, or death due to any cause in the responder patients. The date of response, the date of radiological or clinical PD, according to the investigator assessment and the independent assessment by an independent review committee (IRC), and the date of death was registered and documented, as appropriate. The IRC determined the patient's best response and assigned the date of first documentation of response and progression/censoring according to RECIST v1.1.
Counts and percentages, with their corresponding exact 95% confidence intervals were calculated for the binominal endpoints (i.e. ORR, clinical benefit). Time-to-event variables (OS, PFS, and DOR) and their set time estimates (i.e. PFS4/6 and OS6/12) were analyzed according to Kaplan-Meier method. The evaluation of the efficacy endpoints evaluated by IA and IRC were analyzed and compared.

[5] = Sodium acetate pH 3, 25°C/60% RH
[6] = Sodium acetate pH 3, 14 d 25°C/60% RH
[7] = Sodium acetate pH 4, 25°C/60% RH
[8] = Sodium acetate pH 4, 14 d 25°C/60% RH
[9] = Sodium acetate pH 5, 25°C/60% RH
[10] = Sodium acetate pH 5, 14 d 25°C/60% RH
[11] = Sodium citrate pH 3, 25°C/60% RH
[12] = Sodium citrate pH 3, 14 d 25°C/60% RH
[13] = Sodium citrate pH 4, 25°C/60% RH
[14] = Sodium citrate pH 4, 14 d 25°C/60% RH
[15] = Sodium citrate pH 5, 25°C/60% RH
[16] = Sodium citrate pH 5, 14 d 25°C/60% RH
[17] = Sodium lactate pH 3, 25°C/60% RH
[18] = Sodium lactate pH 3, 14 d 25°C/60% RH
[19] = Sodium lactate pH 4, 25°C/60% RH
[20] = Sodium lactate pH 4, 14 d 25°C/60% RH
[21] = Sodium lactate pH 5, 25°C/60% RH
[22] = Sodium lactate pH 5, 14 d 25°C/60% RH
[23] = Sodium succinate pH 3, 25°C/60% RH
[24] = Sodium succinate pH 3, 14 d 25°C/60% RH
[25] = Sodium succinate pH 4, 25°C/60% RH
[26] = Sodium succinate pH 4, 14 d 25°C/60% RH
[27] = Sodium succinate pH 5, 25°C/60% RH
[28] = Sodium succinate pH 5, 14 d 25°C/60% RH
[29] = chemotherapy-free interval less than 90 days (resistant)

COc1ccc2[nH]c3c(c2c1)CCN[C@]31CS[C@@H]2c3c(OC(C)=O)c(C)c4c(c3[C@H](COC1=O)N1[C@@H]2[C@H]2c3c(cc(C)c(OC)c3O)C[C@@H]([C@@H]1O)N2C)OCO4 [lurbinectedin, Lurbinectedin]
Incidence of febrile neutropenia [1]: lower than 10% | Concentration t = 0 h (Sodium acetate pH 3): 950 µg/mL | Purity t = 0 h (Sodium acetate pH 3): 99.2% | Concentration t = 14 d [5]: 880 µg/mL | Purity t = 14 d [5]: 98.0% | Concentration decrease [6]: 6.8% | Degradation [6]: 1.2% | Concentration t = 0 h (Sodium acetate pH 4): 940 µg/mL | Purity t = 0 h (Sodium acetate pH 4): 99.2% | Concentration t = 14 d [7]: 890 µg/mL | Purity t = 14 d [7]: 98.0% | Concentration decrease [8]: 5.7% | Degradation [8]: 1.2% | Concentration t = 0 h (Sodium acetate pH 5): 30 µg/mL | Purity t = 0 h (Sodium acetate pH 5): 95.4% | Concentration t = 14 d [9]: 30 µg/mL | Purity t = 14 d [9]: 93.7% | Concentration decrease [10]: 8.2% | Degradation [10]: 1.7% | Concentration t = 0 h (Sodium citrate pH 3): 940 µg/mL | Purity t = 0 h (Sodium citrate pH 3): 99.4% | Concentration t = 14 d [11]: 920 µg/mL | Purity t = 14 d [11]: 97.9% | Concentration decrease [12]: 1.2% | Degradation [12]: 1.6% | Concentration t = 0 h (Sodium citrate pH 4): 930 µg/mL | Purity t = 0 h (Sodium citrate pH 4): 99.4% | Concentration t = 14 d [13]: 880 µg/mL | Purity t = 14 d [13]: 96.2% | Concentration decrease [14]: 6.0% | Degradation [14]: 3.2% | Concentration t = 0 h (Sodium citrate pH 5): 500 µg/mL | Purity t = 0 h (Sodium citrate pH 5): 99.3% | Concentration t = 14 d [15]: 110 µg/mL | Purity t = 14 d [15]: 95.0% | Concentration decrease [16]: 78.5% | Degradation [16]: 4.3% | Concentration t = 0 h (Sodium lactate pH 3): 940 µg/mL | Purity t = 0 h (Sodium lactate pH 3): 99.3% | Concentration t = 14 d [17]: 930 µg/mL | Purity t = 14 d [17]: 98.6% | Concentration decrease [18]: 0.9% | Degradation [18]: 0.7% | Concentration t = 0 h (Sodium lactate pH 4): 900 µg/mL | Purity t = 0 h (Sodium lactate pH 4): 99.3% | Concentration t = 14 d [19]: 870 µg/mL | Purity t = 14 d [19]: 97.8% | Concentration decrease [20]: 3.0% | Degradation [20]: 1.5% | Concentration t = 0 h (Sodium lactate pH 5): 30 µg/mL | Purity t = 0 h (Sodium lactate pH 5): 96.5% | Concentration t = 14 d [21]: 30 µg/mL | Purity t = 14 d [21]: 93.9% | Concentration decrease [22]: 6.9% | Degradation [22]: 2.6% | Concentration t = 0 h (Sodium succinate pH 3): 960 µg/mL | Purity t = 0 h (Sodium succinate pH 3): 99.3% | Concentration t = 14 d [23]: 930 µg/mL | Purity t = 14 d [23]: 97.7% | Concentration decrease [24]: 3.2% | Degradation [24]: 1.5% | Concentration t = 0 h (Sodium succinate pH 4): 970 µg/mL | Purity t = 0 h (Sodium succinate pH 4): 99.2% | Concentration t = 14 d [25]: 890 µg/mL | Purity t = 14 d [25]: 96.8% | Concentration decrease [26]: 7.6% | Degradation [26]: 2.4% | Concentration t = 0 h (Sodium succinate pH 5): 40 µg/mL | Purity t = 0 h (Sodium succinate pH 5): 95.9% | Concentration t = 14 d [27]: 30 µg/mL | Purity t = 14 d [27]: 94.2% | Concentration decrease [28]: 8.1% | Degradation [28]: 1.8% | solubility ([2]; sodium acetate buffer, pH 3, aqueous buffer): 950 µg/mL (≈ 1210 µM) | solubility ([2]; sodium acetate buffer, pH 4, aqueous buffer): 940 µg/mL (≈ 1200 µM) | solubility ([2]; sodium acetate buffer, pH 5, aqueous buffer): 30 µg/mL (≈ 38.2 µM) | solubility ([2]; sodium citrate buffer, pH 3, aqueous buffer): 940 µg/mL (≈ 1200 µM) | solubility ([2]; sodium citrate buffer, pH 4, aqueous buffer): 930 µg/mL (≈ 1180 µM) | solubility ([2]; sodium citrate buffer, pH 5, aqueous buffer): 500 µg/mL (≈ 637 µM) | solubility ([2]; sodium lactate buffer, pH 3, aqueous buffer): 940 µg/mL (≈ 1200 µM) | solubility ([2]; sodium lactate buffer, pH 4, aqueous buffer): 900 µg/mL (≈ 1150 µM) | solubility ([2]; sodium lactate buffer, pH 5, aqueous buffer): 30 µg/mL (≈ 38.2 µM) | solubility ([2]; sodium succinate buffer, pH 3, aqueous buffer): 960 µg/mL (≈ 1220 µM) | solubility ([2]; sodium succinate buffer, pH 4, aqueous buffer): 970 µg/mL (≈ 1240 µM) | solubility ([2]; sodium succinate buffer, pH 5, aqueous buffer): 40 µg/mL (≈ 51 µM) | solubility ([3]; monopotassium phosphate buffer): 210 µg/mL (≈ 268 µM) | solubility ([3]; sodium acetate buffer): 940 µg/mL (≈ 1200 µM) | solubility ([3]; sodium citrate buffer): 930 µg/mL (≈ 1180 µM) | solubility ([3]; sodium lactate buffer): 900 µg/mL (≈ 1150 µM) | solubility ([3]; sodium succinate buffer): 970 µg/mL (≈ 1240 µM) | Median overall survival of patients with initial objective response (post-hoc) ([4]; 37 responders, overall population): 12.6 months | Duration of response, median ([4]; IRC assessment, overall): 5.1 months | Overall response rate (CR + PR) ([4]; Investigator assessment, resistant disease (CTFI <90 days, n = 45)): 22.2% | Patients alive at 1 year after the first dose ([4]; chemotherapy-free interval less than 90 days (n = 45)): 16% | Median overall survival [4, 29]: 5.0 months | Median progression-free survival [4, 29]: 2.6 months | Disease progression with new lesions in the CNS ([4]; of 94 patients who discontinued lurbinectedin): 9% | Median overall survival of patients with initial objective response (post-hoc) ([4]; responders with resistant disease): 10.9 months
